Measured values taken from US6395757B1, “Method for treating hot flashes in humans” (priority 1998, dated 2002).

Columns and labels:
[1] = transdermal, tamoxifen-treated women; cited from earlier work
[2] = Daily topical application of 0.5% glycopyrrolate roll-on solution in tamoxifen-treated breast cancer patients (Examples 2 and 3); type: in vivo, human
Description: A person treated with tamoxifen for breast cancer described 8 months of hot flashes and perspiration that awakened them from sleep.
A person treated with tamoxifen for breast cancer described hot flashes and perspiration beginning on their scalp, which interfered with their sleep.

[3] = Daily topical application of 0.5% glycopyrrolate lotion in a patient with menopausal hot flashes (Example 1); type: in vivo, human
Protocol: The patient is a person with a history of hot flashes and perspiration associated with menopause. They complained about profuse facial, scalp and anterior neck sweating that occurred randomly with the hot flashes. As a treatment, the patient was offered and consented to the application of 0.5% glycopyrrolate topical lotion, which they applied once daily to their forehead and face, sparing their mouth and eyes. The lotion consisted of 1.5 gm glycopyrrolate; 75 ml ethanol; 2.4 gm hydroxyethylcell; brought to a total volume of 300 ml with water and the pH adjusted to 2-4.5.

[4] = solution applied to the face of the patient; cited from earlier work
[5] = cited from earlier work
[6] = Example 2: person on tamoxifen, 0.5% roll-on solution daily to face
[7] = Example 3: person on tamoxifen, 0.5% roll-on solution daily to scalp and around hair line

Clc1cccc(Cl)c1N=C1NCCN1 [clonidine]
frequency and severity of hot flashes [1]: only a moderate effect

C[N+]1(C)CCC(OC(=O)C(O)(c2ccccc2)C2CCCC2)C1 (centres unmarked) [glycopyrrolate]
quality of sleep [2, 6]: improvement in the quality of their sleep | symptoms (hot flashes and perspiration) [2, 6]: greatly relieved their symptoms | sleep [2, 7]: improved sleep | symptoms (hot flashes and perspiration) [2, 7]: greatly relieved their symptoms | symptoms during continued use ([3]; daily topical roll-on lotion, subsequent 6 months): continued to alleviate their symptoms | perspiration associated with the hot flashes ([3]; person, menopause, 0.5% lotion once daily to forehead and face): complete resolution | hot flashes associated with menopause (patient report) ([3]; person, 0.5% lotion once daily to forehead and face): alleviated | gustatory sweating [4]: prevented the gustatory sweating

CC(=O)O[C@]1(C(C)=O)CC[C@H]2[C@@H]3C=C(C)C4=CC(=O)CC[C@]4(C)[C@H]3CC[C@@]21C [megestrol acetate]
frequency of hot flashes ([5]; low dose oral, men and women, short term study): reduce the frequency of hot flashes | side effect when taken long term ([5]; low dose, long term): chronic adrenal insufficiency can be a side effect
